Laboratory results taken from publication PMC5514901, “Synthesis and evaluation of anthranilamide-based derivatives as FXa inhibitors” (Oncotarget, 2017).

Experiments:
human FXa = target: T1, human FXa (Homo sapiens, UniProt P00742); experiment: Inhibition activity measurement against FXa (chromogenic substrate CS-11(22)); format: biochemical; conditions: for IC50: human FXa, chromogenic substrate, 37°C, read at 405 nm; for FXa inhibitory activity (in words): SAR statement in text
T1 construct: purchased Hyphen BioMed
Description: The inhibition of FXa was measured using human FXa (Hyphen BioMed, city, Paris, FRA) and chromogenic substrate CS-11(22) (Hyphen BioMed, Paris, FRA) in 384-well microtiter plates at room temperature. […] 2 μL of FXa (56.8 nM), 16 μL of Tris buffer (adjust to pH 7.4 with HCl containing 0.3 M NaCl and 50 mM Tris) and 3 μL of test compound were added to the well, respectively. The negative control was composed of the same mixed solutions except replacing test compound with DMSO. […] After incubated at 37°C for 5 min, 8 μL of FXa substrate solution (3.5 mM) was added and then incubated at 37°C for 25 min. The FXa activity was measured at 405 nm using a SpectraMax M5 (Molecular Devices, Sunnyvale, CA, USA). The IC50 was calculated by the software named SPSS (IBM, North Castle, NY, USA) and the Probit function in it.

T1 sequence (P00742 235-488 limits assumed): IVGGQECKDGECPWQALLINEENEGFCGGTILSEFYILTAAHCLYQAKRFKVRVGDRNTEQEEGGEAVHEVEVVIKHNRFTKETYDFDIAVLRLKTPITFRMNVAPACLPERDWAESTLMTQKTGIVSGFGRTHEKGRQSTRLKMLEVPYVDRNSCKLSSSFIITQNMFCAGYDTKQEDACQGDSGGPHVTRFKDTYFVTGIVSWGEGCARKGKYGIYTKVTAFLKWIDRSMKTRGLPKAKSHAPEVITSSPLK
T1 sequence (P00742 41-179 partner limits assumed): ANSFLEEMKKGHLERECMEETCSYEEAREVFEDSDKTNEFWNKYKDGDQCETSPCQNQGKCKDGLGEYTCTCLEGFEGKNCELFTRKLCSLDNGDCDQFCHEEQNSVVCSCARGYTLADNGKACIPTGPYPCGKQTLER

Compound	IC50 (human FXa) [µM]	melting point [°C]	FXa inhibitory activity (in words) (human FXa)
O=C(Nc1ccc(Cl)cc1C(=O)Nc1ccc(-n2ccccc2=O)cc1)c1ccc(Br)s1 [6a-a, 5-bromo-N-(4-chloro-2-((4-(2-oxopyridin-1(2H)-yl)ph-enyl)carbamoyl)phenyl)thiophene-2-carboxamide]	0.121	> 250	
Cc1cccc(C(=O)Nc2ccc(-n3ccccc3=O)cc2)c1NC(=O)c1ccc(Br)s1 [6a-c, 5-bromo-N-(2-methyl-6-((4-(2-oxopyridin-1(2H)-yl)ph-enyl)carbamoyl)phenyl)thiophene-2-carboxamide]	> 1	> 250	poor IC50 values at a micromole level
O=C(Nc1ccccc1C(=O)Nc1ccc(N2CCOCC2=O)cc1)c1ccc(Br)s1 [6a-d, 5-bromo-N-(2-((4-(3-oxomorpholino)phenyl)carbamo-yl)phenyl)thiophene-2-carboxamide]	0.113	> 250	
Cc1ccc(NC(=O)c2ccc(Br)s2)c(C(=O)Nc2ccc(N3CCOCC3=O)cc2)c1 [6a-f, 5-bromo-N-(4-methyl-2-((4-(3-oxomorpholino)phenyl)carbamoyl)phenyl)thiophene-2-carboxamide]	0.0548	> 250	
Cc1cccc(C(=O)Nc2ccc(N3CCOCC3=O)cc2)c1NC(=O)c1ccc(Br)s1 [6a-g, 5-bromo-N-(2-methyl-6-((4-(3-oxomorpholino)phenyl)carbamoyl)phenyl)thiophene-2-carboxamide]	> 1	> 250	poor IC50 values at a micromole level
Cc1ccc(C(=O)Nc2ccccc2C(=O)Nc2ccc(-n3ccccc3=O)cc2)s1 [6b, 5-methyl-N-(2-((4-(2-oxopyridin-1(2H)-yl)phenyl)carb-amoyl)phenyl)thiophene-2-carboxamide]	> 1	> 250	
O=C(Nc1ccccc1C(=O)Nc1ccc(-n2ccccc2=O)cc1)c1ccc(Cl)o1 [6c, 5-chloro-N-(2-((4-(2-oxopyridin-1(2H)-yl)phenyl)carb-amoyl)phenyl)furan-2-carboxamide]	> 1	> 250	
O=C(Nc1ccccc1C(=O)Nc1ccc(-n2ccccc2=O)cc1)c1ccc(Br)o1 [6d, 5-bromo-N-(2-((4-(2-oxopyridin-1(2H)-yl)phenyl)carb-amoyl)phenyl)furan-2-carboxamide]	> 1	> 250	
O=C(Nc1ccccc1C(=O)Nc1ccc(-n2ccccc2=O)cc1)c1ccc([N+](=O)[O-])cc1 [6e, 2-(4-nitrobenzamido)-N-(4-(2-oxopyridin-1 (2H)-yl)ph-enyl)benzamide]		> 250	
N#Cc1ccc(C(=O)Nc2ccccc2C(=O)Nc2ccc(-n3ccccc3=O)cc2)cc1 [6f, 2-(4-cyanobenzamido)-N-(4-(2-oxopyridin-1(2H)-yl)phenyl)benzamide]	> 1	> 250	
COc1ccc(C(=O)Nc2ccccc2C(=O)Nc2ccc(-n3ccccc3=O)cc2)cc1[N+](=O)[O-] [6g, 4-methoxy-3-nitro-N-(2-((4-(2-oxopyridin-1(2H)-yl)ph-enyl)carbamoyl)phenyl)benzamide]	> 1	> 250	
O=C(Nc1ccccc1C(=O)Nc1ccc(-n2ccccc2=O)cc1)c1ccc(Cl)nc1 [6h, 6-chloro-N-(2-((4-(2-oxopyridin-1(2H)-yl)phenyl)carb-amoyl)phenyl)nicotinamide]	0.278	> 250	
O=C(Nc1ccc(Cl)cc1C(=O)Nc1ccc(-n2ccccc2=O)cc1)c1ccc(Cl)nc1 [6h-a, 6-chloro-N-(4-chloro-2-((4-(2-oxopyridin-1(2H)-yl)ph-enyl)carbamoyl)phenyl)nicotinamide]	0.427	> 250	
Cc1ccc(NC(=O)c2ccc(Cl)nc2)c(C(=O)Nc2ccc(-n3ccccc3=O)cc2)c1 [6h-b, 6-chloro-N-(4-methyl-2-((4-(2-oxopyridin-1(2H)-yl)ph-enyl)carbamoyl)phenyl)nicotinamide]	0.212	> 250	
Cc1cccc(C(=O)Nc2ccc(-n3ccccc3=O)cc2)c1NC(=O)c1ccc(Cl)nc1 [6h-c, 6-chloro-N-(2-methyl-6-((4-(2-oxopyridin-1(2H)-yl)ph-enyl)carbamoyl)phenyl)nicotinamide]	> 1	> 250	
O=C(Nc1ccccc1C(=O)Nc1ccc(N2CCOCC2=O)cc1)c1ccc(Cl)nc1 [6h-d, 6-chloro-N-(2-((4-(3-oxomorpholino)phenyl)carbamo-yl)phenyl)nicotinamide]	> 1	> 250	
O=C(Nc1ccc(Cl)cc1C(=O)Nc1ccc(N2CCOCC2=O)cc1)c1ccc(Cl)nc1 [6h-e, 6-chloro-N-(4-chloro-2-((4-(3-oxomorpholino)phenyl)carbamoyl)phenyl)nicotinamide]	0.781	> 250	

Compound	IC50 (human FXa) [µM]	melting point [°C]	FXa inhibitory activity (in words) (human FXa)
Cc1ccc(NC(=O)c2ccc(Cl)nc2)c(C(=O)Nc2ccc(N3CCOCC3=O)cc2)c1 [6h-f, 6-chloro-N-(4-methyl-2-((4-(3-oxomorpholino)phenyl)carbamoyl)phenyl)nicotinamide]	0.453	> 250	
Cc1cccc(C(=O)Nc2ccc(N3CCOCC3=O)cc2)c1NC(=O)c1ccc(Cl)nc1 [6h-g, 6-chloro-N-(2-methyl-6-((4-(3-oxomorpholino)phenyl)carbamoyl)phenyl)nicotinamide]	> 1	> 250	
O=C(Nc1ccccc1C(=O)Nc1ccc(-n2ccccc2=O)cc1)c1ccc(F)c(F)c1 [6i, 3,4-difluoro-N-(2-((4-(2-oxopyridin-1(2H)-yl)phenyl)carbamoyl)phenyl)benzamide]	> 1	> 250	
O=C(Nc1ccccc1C(=O)Nc1ccc(-n2ccccc2=O)cc1)c1cc(F)c(F)c(F)c1 [6j, 3,4,5-trifluoro-N-(2-((4-(2-oxopyridin-1(2H)-yl)phenyl)arbamoyl)phenyl)benzamide]	> 1	> 250	
Cc1cccc(C(=O)Nc2ccc(-n3ccccc3=O)cc2)c1NC(=O)c1ccc(Cl)cc1Cl [6k-c, 2-(2,4-dichlorobenzamido)-3-methyl-N-(4-(2-oxopyrid-in-1(2H)-yl)phenyl)benzamide]	> 1	> 250	poor IC50 values at a micromole level
O=C(Nc1ccccc1C(=O)Nc1ccc(N2CCOCC2=O)cc1)c1ccc(Cl)cc1Cl [6k-d, 2,4-dichloro-N-(2-((4-(3-oxomorpholino)phenyl)carba-moyl)phenyl)benzamide]	0.128	> 250	
O=C(Nc1ccc(Cl)cc1C(=O)Nc1ccc(N2CCOCC2=O)cc1)c1ccc(Cl)cc1Cl [6k-e, 2,4-dichloro-N-(4-chloro-2-((4-(3-oxomorpholino)phe-nyl)carbamoyl)phenyl)benzamide]	0.259	> 250	
Cc1ccc(NC(=O)c2ccc(Cl)cc2Cl)c(C(=O)Nc2ccc(N3CCOCC3=O)cc2)c1 [6k-f, 2,4-dichloro-N-(4-methyl-2-((4-(3-oxomorpholino)phe-nyl)carbamoyl)phenyl)benzamide]	0.282	> 250	
Cc1cccc(C(=O)Nc2ccc(N3CCOCC3=O)cc2)c1NC(=O)c1ccc(Cl)cc1Cl [6k-g, 2-(2,4-dichlorobenzamido)-3-methyl-N-(4-(3-oxomor-pholino)phenyl)benzamide]	> 1	> 250	poor IC50 values at a micromole level
COc1ccc(C(=O)Nc2ccccc2C(=O)Nc2ccc(-n3ccccc3=O)cc2)cc1 [6l, 2-(4-methoxybenzamido)-N-(4-(2-oxopyridin-1(2H)-yl)phenyl)benzamide]	0.181	> 250	
COc1ccc(C(=O)Nc2ccc(Cl)cc2C(=O)Nc2ccc(-n3ccccc3=O)cc2)cc1 [6l-a, 5-chloro-2-(4-methoxybenzamido)-N-(4-(2-oxopyridin-1(2H)-yl)phenyl)benzamide]	> 1	> 250	
COc1ccc(C(=O)Nc2ccc(C)cc2C(=O)Nc2ccc(-n3ccccc3=O)cc2)cc1 [6l-b, 2-(4-methoxybenzamido)-5-methyl-N-(4-(2-oxopyrid-in-1(2H)-yl)phenyl)benzamide]	0.452	> 250	
COc1ccc(C(=O)Nc2c(C)cccc2C(=O)Nc2ccc(-n3ccccc3=O)cc2)cc1 [6l-c, 2-(4-methoxybenzamido)-3-methyl-N-(4-(2-oxopyrid-in-1(2H)-yl)phenyl)benzamide]	> 1	> 250	
COc1ccc(C(=O)Nc2ccccc2C(=O)Nc2ccc(N3CCOCC3=O)cc2)cc1 [6l-d, 2-(4-methoxybenzamido)-N-(4-(3-oxomorpholino)phe-nyl)benzamide]	0.459	> 250	
COc1ccc(C(=O)Nc2ccc(Cl)cc2C(=O)Nc2ccc(N3CCOCC3=O)cc2)cc1 [6l-e, 5-chloro-2-(4-methoxybenzamido)-N-(4-(3-oxomorph-olino)phenyl)benzamide]	0.485	> 250	
COc1ccc(C(=O)Nc2ccc(C)cc2C(=O)Nc2ccc(N3CCOCC3=O)cc2)cc1 [6l-f, 2-(4-methoxybenzamido)-5-methyl-N-(4-(3-oxomorph-olino)phenyl)benzamide]	0.433	> 250	
